Measured values as given in patent US11332430B1, “Pleuromulin lauric acid ester with antibacterial activity and a method of preparing the same” (priority 2021, dated 2022).

Legend:
MRSA-575 = assay: paper diffusion method drug sensitivity test, MRSA-575; type: cell-based, Staphylococcus aureus; conditions: 30 μg/tablet, 37° C., 24 h, ≥17 mm sensitive, 15-16 mm intermediary, ≤14 mm drug resistance
Experimental: (§1) The antimicrobial efficacy was determined by a paper diffusion method drug sensitivity test.
(§2) Experimental strains: multi-resistant Staphylococcus aureus 171, multi-resistant Staphylococcus aureus 575, multi-resistant Staphylococcus aureus 596. The experimental strain was identified by Huashan Hospital Affiliated to Fudan University (Institute of Antibiotic of Fudan University).
(§3) Drug sensitive paper: The drug sensitive paper is a special drug sensitive paper with a diameter of 6.35 mm and a water absorption of 0.02 mL. The control was vancomycin (30 μg/tablet); the test compounds were pleuromulin (30 μg/tablet), lauric acid (30 μg/tablet) and pleuromulin lauric acid ester (30 μg/tablet).
(§4) The experimental strains were inoculated in non-selective medium and placed in air at 37° C. for 24 h. A single colony that grows well and inoculate it into broth medium was incubate at 35° C.±2° C. for 6 hours, and LA broth medium was used to calibrate the concentration of the bacterial solution to 0.5 Mie turbidimetric tube (1.5×10^8 CFU/mL). A bacterial suspension was obtained.
(§5) LB dry powder was weighed, sterilized at 103.4 Kpa, 121.3° C. high-pressure steam for 15 min, and then placed it in a 40° C.-50° C. water bath. A sterile empty plate (inner diameter 9 cm) was placed on the surface of the ultra-clean table water table, and […] was poured to the plate. The thickness of each plate was 3 mm to 4 mm. After the plate was cooled at room temperature, it was stored in the refrigerator at 2° C.-8° C. A sterile cotton swab was used to dip the bacterial solution and ti evenly coat the surface of the LB plate 3 times. After inoculation of the bacterial suspension, the LB plate was dried at room temperature for 3 min to 5 min. Sterile forceps were used to closely attach the antibacterial drug paper to the dish. The dish was put upside down and placed in a 37° C. incubator for 24 h. The results were observed by measuring the diameter. Taking 0.5% DMSO solution as a negative control, the antibacterial activity is expressed by the diameter of the inhibition zone. The inhibition zone ≥17 mm, sensitive; the inhibition zone of 15 mm-16 mm, intermediary; the inhibition zone ≤14 mm, drug resistance.

MRSA-206 = assay: paper diffusion method drug sensitivity test, MRSA-206; type: cell-based, Staphylococcus aureus; conditions: 30 μg/tablet, 37° C., 24 h, ≥17 mm sensitive, 15-16 mm intermediary, ≤14 mm drug resistance
[1] = system: multi-drug resistant Staphylococcus aureus 206, 575, 596; assay: paper diffusion method drug sensitivity test, summary over the strains; type: cell-based; conditions: 30 μg/tablet
Experimental: as §1, §2, §3, §4, §5

MRSA-596 = assay: paper diffusion method drug sensitivity test, MRSA-596; type: cell-based, Staphylococcus aureus; conditions: 30 μg/tablet, 37° C., 24 h, ≥17 mm sensitive, 15-16 mm intermediary, ≤14 mm drug resistance
Experimental: as §1, §2, §3, §4, §5

[2] = listed as Pleuromutilin lauric acid derivative

C=C[C@]1(C)C[C@@H](OC(=O)CO)[C@]2(C)[C@H](C)CC[C@]3(CCC(=O)[C@H]32)[C@@H](C)[C@@H]1O [Pleuromulin]
Zone of inhibition (MRSA-575): 0 mm
Zone of inhibition (MRSA-206): 0 mm
inhibitory effect on drug-resistant bacteria (in words) [1]: no inhibitory effect
Zone of inhibition (MRSA-596): 0 mm

C=C[C@]1(C)C[C@@H](OC(=O)COC(=O)CCCCCCCCCCC)[C@]2(C)CC[C@@H](C)[C@@]3(CCC(=O)[C@@H]23)[C@@H](C)[C@@H]1O [Pleuromulinlauric acid ester, 2-(((3aS,4R,5S,6S,8R,9R,9aR,12R)-5-hydroxy-4,6,9,12-tetramethyl-1-oxo-6-vinyldecahydro-3a,9-propanocyclopenta[8]annulen-8-yl)oxy)-2-oxoethyl Dodecanoate]
Zone of inhibition (MRSA-575): 25 mm
Zone of inhibition (MRSA-575; [2]): up to 25 mm
Zone of inhibition (MRSA-206): 13 mm
inhibitory effect on drug-resistant bacteria (in words) [1]: excellent antibacterial activity
inhibitory effect on drug-resistant bacteria (in words) [1, 2]: strong inhibitory effects
Zone of inhibition (MRSA-596): 12 mm

CCCCCCCCCCCC(=O)O [Laurie acid, Lauric acid]
Zone of inhibition (MRSA-575): 0 mm
Zone of inhibition (MRSA-206): 0 mm
inhibitory effect on drug-resistant bacteria (in words) [1]: no inhibitory effect
Zone of inhibition (MRSA-596): 0 mm

CN[C@H](CC(C)C)C(=O)N[C@H]1C(=O)N[C@@H](CC(N)=O)C(=O)N[C@H]2C(=O)N[C@H]3C(=O)N[C@H](C(=O)N[C@H](C(=O)O)c4cc(O)cc(O)c4-c4cc3ccc4O)[C@H](O)c3ccc(c(Cl)c3)Oc3cc2cc(c3O[C@@H]2O[C@H](CO)[C@@H](O)[C@H](O)[C@H]2O[C@H]2C[C@](C)(N)[C@H](O)[C@H](C)O2)Oc2ccc(cc2Cl)[C@H]1O [Vancomycin]
Zone of inhibition (MRSA-575): 17 mm
Zone of inhibition (MRSA-206): 15 mm
Zone of inhibition (MRSA-596): 23 mm
